Where a name gives a salt, the structure may show the parent alone.
Target: T1, FAAH (Rattus norvegicus, UniProt P97612)
T1 construct: Frozen brains (without cerebellum) from Wistar rats were used; from tissue; host or cells: Wistar rat brain (without cerebellum), washed membrane pellets
T1 sequence (P97612 1-579): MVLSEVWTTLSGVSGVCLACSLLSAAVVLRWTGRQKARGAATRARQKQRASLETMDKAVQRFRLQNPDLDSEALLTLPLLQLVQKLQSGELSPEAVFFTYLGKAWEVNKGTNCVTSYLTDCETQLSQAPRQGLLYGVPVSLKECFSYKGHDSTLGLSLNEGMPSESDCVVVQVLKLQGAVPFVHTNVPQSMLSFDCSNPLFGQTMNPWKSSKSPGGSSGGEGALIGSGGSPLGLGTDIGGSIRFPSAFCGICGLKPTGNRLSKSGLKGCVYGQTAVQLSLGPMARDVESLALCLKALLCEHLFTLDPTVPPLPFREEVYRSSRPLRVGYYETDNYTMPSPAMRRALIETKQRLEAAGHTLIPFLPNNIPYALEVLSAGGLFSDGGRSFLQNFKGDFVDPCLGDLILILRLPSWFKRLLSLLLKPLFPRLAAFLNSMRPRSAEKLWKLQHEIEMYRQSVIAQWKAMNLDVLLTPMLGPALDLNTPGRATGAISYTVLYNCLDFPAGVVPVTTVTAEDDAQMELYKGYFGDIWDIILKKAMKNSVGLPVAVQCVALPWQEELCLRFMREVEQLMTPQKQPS
Assay: In vitro FAAH activity in rat brain membranes, 3H-AEA substrate, % of control
Format: biochemical, Wistar rats
Conditions: low value = strong inhibitor; for In Vitro FAAH activity, 100 nM: 100 nM test compound; for In Vitro FAAH activity, 10 uM: 10 uM test compound; for In Vitro 100 nM (FAAH activity, % of control): rat brain membranes, compound at 100 nM
In short: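 Wistar rat brain membranes (5 μg protein) preincubated 15 min at 37 °C with compound at 10 μM or 0.1 μM (0.1% DMSO), then 2 μM AEA including 3H-AEA with 0.1% BSA, Tris pH 7.6, 10 min. 3H-ethanolamine counted after charcoal stop; % of no-compound control after blank subtraction.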

| SMILES | In Vitro FAAH activity, 100 nM | In Vitro FAAH activity, 10 uM | In Vitro 100 nM (FAAH activity, % of control) |
| --- | --- | --- | --- |
| COc1cc(-c2cn(C(=O)N3COCC3(C)C)cn2)ccc1OCc1ccccc1 [Compound 225, (4-(4-(benzyloxy)-3-methoxyphenyl)-1H-imidazol-1-yl)(4,4-dimethyloxazolidin-3-yl)methanone] | 79 % of control | – | – |
| O=C(N[C@H]1CN2CCC1CC2)n1nnc2ccccc21 [Compound 142, (R)—N-(quinuclidin-3-yl)-1H-benzo[d][1,2,3]triazole-1-carboxamide hydrochloride] | 101.8 % of control | – | – |
| CN(C(=O)n1cnc2ccccc21)c1ccccc1 [Compound 18, N-methyl-N-phenyl-1H-benzo[d]imidazole-1-carboxamide] | – | 67.9 % of control | – |
| O=C(N1CCSC1)n1cnc(-c2ccc(Cl)cc2)n1 [Compound 214, (3-(4-chlorophenyl)-1H-1,2,4-triazol-1-yl)(thiazolidin-3-yl)methanone] | 23.7 % of control | – | – |
| CN(C(=O)n1cnc(-c2cccc(OCCN3CCNCC3)c2)c1)c1ccccc1.Cl.Cl [Compound 200, N-methyl-N-phenyl-4-(3-(2-(piperazin-1-yl)ethoxy)phenyl)-1H-imidazole-1-carboxamide dihydrochloride] | 100.1 % of control | – | – |
| O=C(N1CCN(c2ccccc2)CC1)n1cnc(-c2ccccc2)n1 [Compound 111, (3-phenyl-1H-1,2,4-triazol-1-yl)(4-phenylpiperazin-1-yl)methanone] | 1.5 % of control | – | – |
| O=C(N1CCOCC1)n1ccc(-c2cccnc2)n1 [Compound 21, morpholino(3-(pyridin-3-yl)-1H-pyrazol-1-yl)methanone hydrochloride] | – | 79.1 % of control | – |
| CN(C(=O)n1cnc(-c2cccc3ccccc23)n1)c1ccccc1 [Compound 192, N-methyl-3-(naphthalen-1-yl)-N-phenyl-1H-1,2,4-triazole-1-carboxamide] | 64.6 % of control | – | – |
| CC1(C)COCN1C(=O)n1cnc(-c2ccc(Cl)cc2)c1Cl [Compound 280, (5-chloro-4-(4-chlorophenyl)-1H-imidazol-1-yl)(4,4-dimethyloxazolidin-3-yl)methanone] | – | – | 111.8 % of control |
| O=C(Nc1ccccc1)n1cccn1 [Compound 9, N-phenyl-1H-pyrazole-1-carboxamide] | – | 78.6 % of control | – |
| COc1cccc(-c2cn(C(=O)N(C)c3ccccc3)cn2)c1 [Compound 31, 4-(3-methoxyphenyl)-N-methyl-N-phenyl-1H-imidazole-1-carboxamide] | 69 % of control | 0 % of control | – |
| O=C(N1CCOCC1)n1cnc(-c2ccc(Cl)cc2)n1 [Compound 68, (3-(4-chlorophenyl)-1H-1,2,4-triazol-1-yl)(morpholino)methanone] | 73.5 % of control | – | – |
| O=C(NC12CC3CC(CC(C3)C1)C2)n1cnc(-c2ccccc2)c1 [Compound 237] | 91.6 % of control | – | – |
| CN(C(=O)n1ccnc1)c1ccccc1 [Compound 2, N-methyl-N-phenyl-1H-imidazole-1-carboxamide] | – | 11.7 % of control | – |
| COc1ccc(NC(=O)n2ccc(-c3ccccc3)n2)cc1 [Compound 6, N-(4-methoxyphenyl)-3-phenyl-1H-pyrazole-1-carboxamide] | – | 91.1 % of control | – |
| O=C(N1CCOCC1)n1nc(Cl)c2ccccc21 [Compound 72, (3-chloro-1H-indazol-1-yl)(morpholino)methanone] | 87.6 % of control | – | – |

Now from value to compound:

| In Vitro FAAH activity, 100 nM | In Vitro FAAH activity, 10 uM | In Vitro 100 nM (FAAH activity, % of control) | SMILES |
| --- | --- | --- | --- |
| 71.8 % of control | – | – | O=C(N1CCc2ccccc2C1)n1cnc(-c2ccc(Cl)cc2)n1 [Compound 185, (3-(4-chlorophenyl)-1H-1,2,4-triazol-1-yl)(3,4-dihydroisoquinolin-2(1H)-yl)methanone] |
| 73.2 % of control | – | – | CN(C(=O)n1cnc(-c2ccccc2)n1)c1ccc(F)cc1F [Compound 74, N-(2,4-difluorophenyl)-N-methyl-3-phenyl-1H-1,2,4-triazole-1-carboxamide] |
| 2.1 % of control | – | – | O=C(N1CCSC1)n1nnc2ccccc21 [Compound 170, (1H-benzo[d][1,2,3]triazol-1-yl)(thiazolidin-3-yl)methanone] |
| 0 % of control | – | – | CN(Cc1cccc(Cl)c1)C(=O)n1nnc2ccccc21 [Compound 123, N-(3-chlorobenzyl)-N-methyl-1H-benzo[d][1,2,3]triazole-1-carboxamide] |
| 83.9 % of control | 0 % of control | – | CN(C(=O)n1cnc(-c2ccc(O)cc2)c1)c1ccccc1 [Compound 38, 4-(4-hydroxyphenyl)-N-methyl-N-phenyl-1H-imidazole-1-carboxamide] |
| 0 % of control | – | – | COc1cccc(OCC2CCN(C(=O)n3nnc4ccccc43)CC2)c1 [Compound 153, (1H-benzo[d][1,2,3]triazol-1-yl)(4-((3-methoxyphenoxy)methyl)piperidin-1-yl)methanone] |
| 81.9 % of control | – | – | O=C(N1CCOCC1)n1cnc(-c2ccc(F)cc2F)n1 [Compound 78, (3-(2,4-difluorophenyl)-1H-1,2,4-triazol-1-yl)(morpholino)methanone] |
| 1.9 % of control | – | – | COc1ccc(-c2ncn(C(=O)N3CCN(c4ccc(F)cc4)CC3)n2)cc1 [Compound 211, (4-(4-fluorophenyl)piperazin-1-yl)(3-(4-methoxyphenyl)-1H-1,2,4-triazol-1-yl)methanone] |
| 49.9 % of control | – | – | CN(C(=O)n1cnc(-c2ccc(Oc3ccc(C(N)=O)cc3)cc2)n1)c1ccccc1 [Compound 149, 3-(4-(4-carbamoylphenoxy)phenyl)-N-methyl-N-phenyl-1H-1,2,4-triazole-1-carboxamide] |
| – | – | 2.5 % of control | O=C(N1COC(c2ccccc2)C1)n1cnc(-c2ccc(F)c(F)c2)c1 (stereo not drawn) [Compound 308, (4-(3,4-difluorophenyl)-1H-imidazol-1-yl)(5-phenyloxazolidin-3-yl)methanone] |
| – | – | 72.1 % of control | CN(C(=O)n1cnc(-c2ccc(Cl)cc2)c1)C1CCCCC1 [Compound 277, 4-(4-chlorophenyl)-N-cyclohexyl-N-methyl-1H-imidazole-1-carboxamide] |
| – | 103.1 % of control | – | CN(C(=O)n1cnc(-c2ccc(-c3ccccc3)cc2)c1)c1ccccc1 [Compound 35, 4-(biphenyl-4-yl)-N-methyl-N-phenyl-1H-imidazole-1-carboxamide] |
| 97.1 % of control | – | – | CN(C(=O)n1nnc2ccccc21)c1ccc(N2CCOCC2)cc1 [Compound 76, N-methyl-N-(4-morpholinophenyl)-1H-benzo[d][1,2,3]triazole-1-carboxamide] |
| 93 % of control | – | – | CN1CCN(C2CCN(C(=O)n3nnc4ccccc43)CC2)CC1.Cl [Compound 122, (1H-benzo[d][1,2,3]triazol-1-yl)(4-(4-methylpiperazin-1-yl)piperidin-1-yl)methanone hydrochloride] |
| – | 97.3 % of control | – | O=C(Nc1ccccc1)n1ccc(-c2ccc(-c3ccccc3)cc2)n1 [Compound 20, 3-(biphenyl-4-yl)-N-phenyl-1H-pyrazole-1-carboxamide] |
| – | – | 85 % of control | CN(C(=O)n1cnc(-c2ccc(Cl)c(Cl)c2)c1)C1CCCCC1 [Compound 274, N-cyclohexyl-4-(3,4-dichlorophenyl)-N-methyl-1H-imidazole-1-carboxamide] |
| 14.3 % of control | – | – | CN(C(=O)n1nnc2cc(-c3ccc(F)cc3)ccc21)C1CCCCC1 [Compound 96, N-cyclohexyl-5-(4-fluorophenyl)-N-methyl-1H-benzo[d][1,2,3]triazole-1-carboxamide] |
| 76.3 % of control | – | – | COc1cc(OC)cc(N(C)C(=O)n2nnc3ccccc32)c1 [Compound 77, N-(3,5-dimethoxyphenyl)-N-methyl-1H-benzo[d][1,2,3]triazole-1-carboxamide] |
| 13.5 % of control | – | – | CN(C(=O)n1nnc2cc(-c3cccc(C(=O)O)c3)ccc21)C1CCCCC1 [Compound 107, 3-(1-(cyclohexyl(methyl)carbamoyl)-1H-benzo[d][1,2,3]triazol-5-yl)benzoic acid] |
| – | 95.8 % of control | – | COc1cccc(NC(=O)n2ccc(-c3ccc(-c4ccccc4)cc3)n2)c1 [Compound 22, 3-(biphenyl-4-yl)-N-(3-methoxyphenyl)-1H-pyrazole-1-carboxamide] |
| 0.7 % of control | – | – | CN(C(=O)n1nnc2cc(-c3cccc(C#N)c3)ccc21)C1CCCCC1 [Compound 95, 5-(3-cyanophenyl)-N-cyclohexyl-N-methyl-1H-benzo[d][1,2,3]triazole-1-carboxamide] |

Source: US9353082B2, “Pharmaceutical compounds” (BIAL—PORTELA & CA, S.A., priority 2008, dated 2016)
